The source of these data is ChEMBL document CHEMBL5113460, “Discovery of dual inhibitors of topoisomerase I and Cyclooxygenase-2 for colon cancer therapy” (Eur J Med Chem, 2022).

One may read the inhibition as the change of the read-out against control, counted positive when it falls. Broadly, the AUC(0-t) is the area under the concentration-time curve up to a stated or last time point. Usually half-life stands for the time in which the quantity being followed falls by half. As a reminder, the IC50 is the concentration needed to halve the response being measured. In general, Tmax refers to the time from dosing to the highest level.

The target in data set [1] is T1, DNA topoisomerase 1 (Homo sapiens) (UniProt P11387).
T1 sequence (whole entry): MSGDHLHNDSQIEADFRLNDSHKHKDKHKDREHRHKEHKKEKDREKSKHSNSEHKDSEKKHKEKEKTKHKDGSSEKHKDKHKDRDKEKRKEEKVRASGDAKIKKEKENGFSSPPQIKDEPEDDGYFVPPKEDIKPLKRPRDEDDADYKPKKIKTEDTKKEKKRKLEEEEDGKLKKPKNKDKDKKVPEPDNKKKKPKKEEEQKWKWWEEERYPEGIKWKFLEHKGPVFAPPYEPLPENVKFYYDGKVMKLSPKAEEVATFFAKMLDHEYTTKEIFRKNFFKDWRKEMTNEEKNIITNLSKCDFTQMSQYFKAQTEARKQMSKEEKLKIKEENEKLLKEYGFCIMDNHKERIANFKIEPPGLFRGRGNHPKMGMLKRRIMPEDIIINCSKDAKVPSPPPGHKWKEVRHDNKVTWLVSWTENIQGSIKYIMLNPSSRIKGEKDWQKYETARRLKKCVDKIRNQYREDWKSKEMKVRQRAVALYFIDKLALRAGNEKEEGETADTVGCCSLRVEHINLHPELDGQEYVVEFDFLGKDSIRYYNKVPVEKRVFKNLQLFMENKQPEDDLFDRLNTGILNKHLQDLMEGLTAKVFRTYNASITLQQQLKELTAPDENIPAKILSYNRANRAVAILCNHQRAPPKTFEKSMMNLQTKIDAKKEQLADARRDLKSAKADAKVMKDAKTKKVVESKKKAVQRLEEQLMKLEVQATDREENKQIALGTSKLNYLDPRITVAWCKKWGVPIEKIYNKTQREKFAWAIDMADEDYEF
The data set can be described thus: Inhibition of topoisomerase 1 (unknown origin) assessed as relaxation of supercoiled plasmid pBR322 DNA at 1 uM incubated for 45 mins by ethidium bromide staining based agarose gel electrophoresis.

Data set [2] can be described thus: AUC (0-t) in Sprague-Dawley rat at 100 mg/kg, po and measured upto 24 hrs by LC-MS analysis. The format is ADME, organism-based. Further details: dose 100 mg/kg, time < 24 hrs, route po. Conditions: in vivo.
The subject of data set [3] is HT-29. The data set is described as follows: Antitumor activity against human HT-29 cells xenografted in BALB/c mouse assessed as inhibition of tumor cell proliferation at 30 mg/kg, ip bid for 14 days by Ki67 staining based immunohistochemical analysis (Rvb= 16.61+/-1.05%). Conditions: time 14 day. The class given is functional. Also on record: scale not given: the % may be the effect or the level left. (In general: In xenograft studies the graft and the host belong to different species.)

Data set [4] concerns HT-29. The data set can be described thus: Antitumor activity against human HT-29 cells xenografted in BALB/c mouse assessed as reduction of tumor weight at 30 mg/kg, ip bid and measured after 14 days. Conditions: time 14.0 day. The format is functional, organism-based.
Data set [5] deals with HT-29. The data set can be described thus: Induction of apoptosis in human HT-29 cells assessed as necrotic cells at 2 uM incubated for 24 hr by Annexin-V-FITC/PI staining based flow cytometry (Rvb=1.67%). The class given is functional.
The target of data set [6] is T1, DNA topoisomerase 1 (Homo sapiens). The data set can be described thus: Inhibition of topoisomerase 1 (unknown origin) assessed as relaxation of supercoiled plasmid pBR322 DNA at 10 uM incubated for 45 mins by ethidium bromide staining based agarose gel electrophoresis.
A short description of data set [7]: Half life in Sprague-Dawley rat at 30 mg/kg, po and measured upto 12 hrs by LC-MS analysis. To be noted: in vivo. The format is ADME, organism-based.
Data set [8] deals with HT-29. The data set is described as follows: Induction of apoptosis in human HT-29 cells assessed as necrotic cells at 8 uM incubated for 24 hr by Annexin-V-FITC/PI staining based flow cytometry (Rvb=1.67%). The format is functional. For orientation: Flow cytometry measures light scatter and fluorescence of single cells or particles in a stream.
Data set [9] has as its system RKO. The data set can be described thus: Induction of apoptosis in human RKO cells assessed as necrotic cells at 3 uM incubated for 24 hr by Annexin-V-FITC/PI staining based flow cytometry (Rvb= 0.30%). The format is functional.
The test system of data set [10] is HT-29. The data set is described as follows: Induction of apoptosis in human HT-29 cells assessed as increase in cleaved caspase-9 protein level at 2 to 8 uM incubated for 24 hrs by western blot analysis. The format is functional, cell-based. Conditions: dose 2-8 µM.
Data set [11] has as its system RKO. The data set can be described thus: Induction of apoptosis in human RKO cells assessed as late apoptotic cells at 3 uM incubated for 24 hr by Annexin-V-FITC/PI staining based flow cytometry (Rvb= 4.49%). The class given is functional.
The subject of data set [12] is HT-29. The data set is described as follows: Antitumor activity against human HT-29 cells assessed as inhibition of cell proliferation incubated for 72 hrs by MTT assay. The class given is functional, cell-based. To be noted: HT-29, 72 h.
A short description of data set [13]: Half life in Sprague-Dawley rat at 100 mg/kg, po and measured upto 24 hrs by LC-MS analysis. The class given is ADME, organism-based. Conditions: in vivo.
In data set [14] the test system is RKO. The data set is described as follows: Induction of apoptosis in human RKO cells assessed as viable cells at 9 uM incubated for 24 hr by Annexin-V-FITC/PI staining based flow cytometry (Rvb= 87.9%). The class given is functional. To be noted: read-out: Activity.
Data set [15] concerns RKO. The data set is described as follows: Induction of apoptosis in human RKO cells assessed as necrotic cells at 9 uM incubated for 24 hr by Annexin-V-FITC/PI staining based flow cytometry (Rvb= 0.30%). The class given is functional.
For data set [16], the system named is HT-29. The data set is described as follows: Inhibition of NF-kappaB signalling pathway in human HT-29 cells assessed as decrease in phosphorylated NF-kappaB p65 level at 2 to 8 uM incubated for 24 hrs by Western blot analysis. To be noted: dose 2-8 µM. The class given is cell-based.
Data set [17] deals with HT-29. The data set can be described thus: Induction of apoptosis in human HT-29 cells assessed as increase in cytochrome c protein level at 2 to 8 uM incubated for 24 hrs by western blot analysis. The format is functional, cell-based. Conditions: dose 2-8 µM.
Data set [18] is described as follows: Tmax in Sprague-Dawley rat at 30 mg/kg, po and measured upto 12 hrs by LC-MS analysis. The class given is ADME, organism-based. Conditions: in vivo.

The structures appear in SMILES notation. Activity calls are given as the source filed them. The rule behind the calls is not given here.

Take `Cc1c(Cl)cccc1Nc1ccccc1C(=O)Nc1ccc(N2CCNCC2)cc1`: the values for the inhibition in data set [1] and in data set [6] were 53.2% and 69%, respectively. The molecule also gave an AUC(0-t) at 24 h in data set [2] of 24800 ng·h/mL. Besides, the Activity in the data set on HT-29 [3] is reported as 3.27%; in the data set on HT-29 [5], 1.49%; with HT-29 [8], 1.05%; in the data set on RKO [9] it was 0.46%; in the data set on RKO [11], 4.66%; in the data set on RKO [15], 0.59%. For the same molecule, the outcome in the data set with HT-29 [4], in the data set on HT-29 [10] and with HT-29 [17] was Active. For the same molecule, the half-life in data set [7] was 4.27 h; in data set [13], 8.87 h. The IC50 with HT-29 [12] came out at 1.48 µM. Further, in the data set with RKO [14], the viability at 9 µM turned out to be 65.6%. Further, in the data set with HT-29 [16], the inhibition entry is “Active”. In data set [18], the Tmax was 0.28 h.
